Reference: PubChem BioAssay AID248 (DTP/NCI, 2004)
Several values for one entry are separate records, joined by “and”; a condition that tells them apart may be missing. Equal values may be shown once. Toxic doses and inconclusive results are not listed. No stated cut-off is given here; in the data, active means T/C of 150% or more; inactive means T/C below 125%.

Test system: L1210 leukemia ip in BDF1 mice, survival T/C
Test: NCI In Vivo Anticancer Drug Screen. Data for tumor model L1210 Leukemia (intraperitoneal) in B6D2F1 (BDF1) mice
Conditions: higher = longer survival
Procedure, shortened: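 Value reflects the ratio of survival in compound-treated mice to survival in vehicle-treated controls, with both groups carrying the same transplanted tumor.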

[1] = endpoint: mean survival time, dose: 100.0 mg/kg/injection, schedule: Q04DX002 (ip), vehicle: Klucel (hydroxypropylcellulose) (HPC)
[2] = endpoint: mean survival time, dose: 200.0 mg/kg/injection, schedule: Q04DX002 (ip), vehicle: Klucel (hydroxypropylcellulose) (HPC)
[3] = endpoint: mean survival time, dose: 400.0 mg/kg/injection, schedule: Q04DX002 (ip), vehicle: Klucel (hydroxypropylcellulose) (HPC)
[4] = endpoint: mean survival time, dose: 100.0 mg/kg/injection, schedule: Q01DX009 (ip), vehicle: Klucel (hydroxypropylcellulose) (HPC)
[5] = endpoint: mean survival time, dose: 100.0 mg/kg/injection, schedule: Q04DX003 (ip), vehicle: Klucel (hydroxypropylcellulose) (HPC)
[6] = endpoint: mean survival time, dose: 200.0 mg/kg/injection, schedule: Q01DX009 (ip), vehicle: Klucel (hydroxypropylcellulose) (HPC)
[7] = endpoint: mean survival time, dose: 200.0 mg/kg/injection, schedule: Q04DX003 (ip), vehicle: Klucel (hydroxypropylcellulose) (HPC)
[8] = endpoint: mean survival time, dose: 400.0 mg/kg/injection, schedule: Q04DX003 (ip), vehicle: Klucel (hydroxypropylcellulose) (HPC)
[9] = endpoint: mean survival time, dose: 100.0 mg/kg/injection, schedule: Q01DX001 (ip), vehicle: saline
[10] = endpoint: mean survival time, dose: 12.5 mg/kg/injection, schedule: Q01DX009 (ip), vehicle: saline
[11] = endpoint: mean survival time, dose: 25.0 mg/kg/injection, schedule: Q01DX009 (ip), vehicle: saline
[12] = endpoint: mean survival time, dose: 50.0 mg/kg/injection, schedule: Q01DX009 (ip), vehicle: saline

Measured: T/C

CCCCCCCCCCCCCCCCCCNC(=O)Nc1ccc(SC)cc1
inactive: [1] 101 % of control | [2] 96 % of control | [3] 101 % of control

CCC(CO)Nc1nc2ccc([N+](=O)[O-])cc2c2ccccc12 (stereo unspecified)
inactive: [4] 103 % of control | [5] 94 % of control | [6] 111 % of control | [7] 102 % of control | [8] 102 % of control

Cc1cn(C2CC(O)C(COP(=O)(N3CC3)N3CC3)O2)c(=O)[nH]c1=O (stereo unspecified)
inactive: endpoint: mean survival time, dose: 50.0 mg/kg/injection, schedule: Q04DX002 (ip), vehicle: saline 107 % of control | endpoint: mean survival time, dose: 100.0 mg/kg/injection, schedule: Q04DX002 (ip), vehicle: saline 100 % of control | endpoint: mean survival time, dose: 200.0 mg/kg/injection, schedule: Q04DX002 (ip), vehicle: saline 94 % of control

O=c1[nH]c(Cl)nc2c(Cl)c(C(Cl)(Cl)Cl)nn12
inactive: endpoint: mean survival time, dose: 100.0 mg/kg/injection, schedule: Q01DX009 (ip), vehicle: saline with Tween-80 95 % of control | endpoint: mean survival time, dose: 100.0 mg/kg/injection, schedule: Q04DX003 (ip), vehicle: saline with Tween-80 101 % of control | endpoint: mean survival time, dose: 200.0 mg/kg/injection, schedule: Q01DX009 (ip), vehicle: saline with Tween-80 93 % of control | endpoint: mean survival time, dose: 200.0 mg/kg/injection, schedule: Q04DX003 (ip), vehicle: saline with Tween-80 94 % of control | endpoint: mean survival time, dose: 400.0 mg/kg/injection, schedule: Q04DX003 (ip), vehicle: saline with Tween-80 92 % of control

[Cl][Sb]([Cl])([c]1ccccc1)([c]1ccccc1)[c]1ccccc1
inactive: endpoint: mean survival time, dose: 12.5 mg/kg/injection, schedule: Q01DX009 (ip), vehicle: Klucel (hydroxypropylcellulose) (HPC) 95 % of control | endpoint: mean survival time, dose: 25.0 mg/kg/injection, schedule: Q01DX009 (ip), vehicle: Klucel (hydroxypropylcellulose) (HPC) 93 % of control | endpoint: mean survival time, dose: 25.0 mg/kg/injection, schedule: Q04DX002 (ip), vehicle: saline with Tween-80 93 % of control | endpoint: mean survival time, dose: 50.0 mg/kg/injection, schedule: Q01DX001 (ip), vehicle: carboxymethylcellulose (CMC) 96 % of control | endpoint: mean survival time, dose: 50.0 mg/kg/injection, schedule: Q01DX009 (ip), vehicle: Klucel (hydroxypropylcellulose) (HPC) 102 % of control and 91 % of control | endpoint: mean survival time, dose: 50.0 mg/kg/injection, schedule: Q04DX002 (ip), vehicle: saline with Tween-80 97 % of control | endpoint: mean survival time, dose: 100.0 mg/kg/injection, schedule: Q01DX001 (ip), vehicle: carboxymethylcellulose (CMC) 96 % of control | endpoint: mean survival time, dose: 100.0 mg/kg/injection, schedule: Q04DX002 (ip), vehicle: saline with Tween-80 101 % of control | [5] 102 % of control | endpoint: mean survival time, dose: 200.0 mg/kg/injection, schedule: Q01DX001 (ip), vehicle: carboxymethylcellulose (CMC) 114 % of control | [7] 96 % of control | endpoint: mean survival time, dose: 400.0 mg/kg/injection, schedule: Q01DX001 (ip), vehicle: carboxymethylcellulose (CMC) 93 % of control | [8] 105 % of control

Cc1ccc(N=Nc2c(N)nc(N)[nH]c2=O)cc1C
inactive: [9] 100 % of control | endpoint: mean survival time, dose: 200.0 mg/kg/injection, schedule: Q01DX001 (ip), vehicle: saline 96 % of control | endpoint: mean survival time, dose: 400.0 mg/kg/injection, schedule: Q01DX001 (ip), vehicle: saline 96 % of control

CC(C)NCC1CCCO1 (stereo unspecified)
inactive: endpoint: mean survival time, dose: 100.0 mg/kg/injection, schedule: Q04DX003 (ip), vehicle: saline 94 % of control | endpoint: mean survival time, dose: 200.0 mg/kg/injection, schedule: Q04DX003 (ip), vehicle: saline 94 % of control | endpoint: mean survival time, dose: 400.0 mg/kg/injection, schedule: Q04DX003 (ip), vehicle: saline 97 % of control

CCCC(=O)Nc1ncnc2c1ncn2C1OC2COP(=O)(O)OC2C1OC(=O)CCC (stereo unspecified)
inactive: [10] 105 % of control | [11] 104 % of control | [12] 102 % of control | endpoint: mean survival time, dose: 100.0 mg/kg/injection, schedule: Q01DX009 (ip), vehicle: saline 102 % of control | endpoint: mean survival time, dose: 200.0 mg/kg/injection, schedule: Q01DX009 (ip), vehicle: saline 100 % of control | endpoint: mean survival time, dose: 400.0 mg/kg/injection, schedule: Q01DX009 (ip), vehicle: saline 104 % of control | endpoint: median survival time, dose: 25.0 mg/kg/injection, schedule: Q01DX009 (ip), vehicle: saline 100 % of control | endpoint: median survival time, dose: 50.0 mg/kg/injection, schedule: Q01DX001 (ip), vehicle: saline 100 % of control | endpoint: median survival time, dose: 50.0 mg/kg/injection, schedule: Q01DX009 (ip), vehicle: saline 100 % of control | endpoint: median survival time, dose: 100.0 mg/kg/injection, schedule: Q01DX001 (ip), vehicle: saline 100 % of control | endpoint: median survival time, dose: 100.0 mg/kg/injection, schedule: Q01DX009 (ip), vehicle: saline 100 % of control | endpoint: median survival time, dose: 200.0 mg/kg/injection, schedule: Q01DX001 (ip), vehicle: saline 100 % of control | endpoint: median survival time, dose: 200.0 mg/kg/injection, schedule: Q01DX009 (ip), vehicle: saline 100 % of control | endpoint: median survival time, dose: 400.0 mg/kg/injection, schedule: Q01DX001 (ip), vehicle: saline 100 % of control | endpoint: median survival time, dose: 400.0 mg/kg/injection, schedule: Q01DX009 (ip), vehicle: saline 100 % of control

CNC(=O)Oc1cccc(CN(C)C)c1
inactive: endpoint: mean survival time, dose: 5.0 mg/kg/injection, schedule: Q01DX001 (ip), vehicle: saline 98 % of control | endpoint: mean survival time, dose: 10.0 mg/kg/injection, schedule: Q01DX001 (ip), vehicle: saline 96 % of control | endpoint: mean survival time, dose: 20.0 mg/kg/injection, schedule: Q01DX001 (ip), vehicle: saline 96 % of control

ClC1=C2C=CC=CC2C(Cl)(c2ccccc2)C2=C1C(Cl)=C1C=CC=CC1C2(Cl)c1ccccc1 (stereo unspecified)
inactive: endpoint: mean survival time, dose: 100.0 mg/kg/injection, schedule: Q01DX001 (ip), vehicle: Klucel (hydroxypropylcellulose) (HPC) 106 % of control | endpoint: mean survival time, dose: 200.0 mg/kg/injection, schedule: Q01DX001 (ip), vehicle: Klucel (hydroxypropylcellulose) (HPC) 101 % of control | endpoint: mean survival time, dose: 400.0 mg/kg/injection, schedule: Q01DX001 (ip), vehicle: Klucel (hydroxypropylcellulose) (HPC) 101 % of control

O=S1(=O)C=C(Br)c2ccccc21
inactive: [4] 101 % of control | [5] 91 % of control | [6] 91 % of control | [7] 96 % of control | [8] 90 % of control

COc1cc(OC)c(NC(=O)c2cc3ccccc3cc2O)cc1Cl
inactive: [4] 96 % of control | [5] 101 % of control | [6] 101 % of control | [7] 101 % of control | endpoint: mean survival time, dose: 400.0 mg/kg/injection, schedule: Q01DX009 (ip), vehicle: Klucel (hydroxypropylcellulose) (HPC) 96 % of control | [8] 111 % of control

NC(N)=NN(CCN(N=O)N=C(N)N)N=O
inactive: [1] 96 % of control | [2] 104 % of control | [3] 86 % of control

CCOC(=O)c1[nH]c2ccsc2c1C[N+]1(C)CCCCC1
inactive: endpoint: mean survival time, dose: 12.5 mg/kg/injection, schedule: Q01DX001 (ip), vehicle: saline with Tween-80 105 % of control | endpoint: mean survival time, dose: 25.0 mg/kg/injection, schedule: Q01DX001 (ip), vehicle: saline with Tween-80 103 % of control

N#[N+]c1ccc(Br)cc1-c1nc(N)nc(N)n1
inactive: [10] 92 % of control | [11] 101 % of control | endpoint: mean survival time, dose: 25.0 mg/kg/injection, schedule: Q04DX003 (ip), vehicle: saline 113 % of control | [12] 100 % of control | endpoint: mean survival time, dose: 50.0 mg/kg/injection, schedule: Q04DX003 (ip), vehicle: saline 98 % of control | [9] 104 % of control

O=C(Nc1cccc([N+](=O)[O-])c1)c1ccc(C(=O)Nc2cccc([N+](=O)[O-])c2)cc1
inactive: [1] 98 % of control | [2] 91 % of control | [3] 86 % of control
